Results taken from patent US9220706B2, “Inhibition of leukemic stem cells by PP2A activating agents” (Ohio State Innovation Foundation, priority 2012, dated 2015).

Legend:
[1] = test system: CFSE^max/CD34^+ CML cells; assay: CFSE-mediated tracking of quiescent cells, CML; format: cell-based, human; settings: CFSE-labeled CD34^+ CML cells; FTY720 at 2.5 μM
Procedure: CFSE-mediated tracking of cell division. Carboxyfluorescein diacetate succinimidyl diester (CFSE)-stained cells (CellTrace CFSE Proliferation Kit: Invitrogen) were cultured in the presence of the indicated drugs (dosed at time zero and at day three), and the cells were harvested after 3 or 6 days in culture, and stained with anti-CD34 PE, Annexin-V V450, and the viability stain 7-AAD (BD Bioscience) to determine the number of viable quiescent cells (CFSEmax/CD34^+/7-AAD− cells) and the percentage of quiescent and apoptosis-committed cells (CFSEmax/CD34+/Annexin V+/7-AAD±). Cells were sorted into dividing and quiescent populations for Western blot analysis. For assessment of mouse quiescent leukemic HSCs, Lin- cells from 8 week-induced SCLtTA/BCR-ABL1 mice were CFSE-stained and used as described above. Quiescent cells (CFSE^max/CD34^+) were reported as a fraction of the initial number of CD34^+ cells.

[2] = test system: CML cells; assay: Long term culture-initiating cell (LTC-IC) assay; format: cell-based, human; settings: drug during first week of 6-week culture, vs untreated
Procedure: Long term culture-initiating cell (LTC-IC) and Colony-forming cell (CFC)/replating assays. 2×10^6 mononuclear CML cells were cultured with a 1:1 mixture of irradiated (80 Gy) IL-3/G-CSF-producing M2-10B4 and IL-3/KL-producing SI/SI murine fibroblasts in MyeloCult H5100 (StemCell Technologies) supplemented with hydrocortisone. Drugs were present during the first week of culture. Medium was replaced after 7 days, followed by weekly half-medium changes. After 6 weeks, adherent and floating cells were harvested and 5×10^4 cells plated into MethoCult H4435. LTC-IC-derived colonies were scored after 14 days. For CFC/replating, individual 14-day colonies from 10^3-10^5 CD34+/CD38− CML or 0.2×10^3-10^3 leukemic LSK cells plated in 0.9% H4435 or M3234 MethoCult, respectively, containing KL, G-CSF, GM-CSF, IL-3, IL-6, and Epo were replated and scored 2 weeks later.

[3] = test system: BCR-ABL1; assay: Intracellular flow staining of active BCR-ABL1 (pABL); format: cell-based, human
Procedure: (§1) Flow cytontetric analysis and sorting of HSCs. Primary CD34^+ cells were isolated by magnetic cell sorting (CD34 MultiSort; Miltenyi Biotec) and kept in IMDM supplemented with 30% FBS, 2 mM Lglutamine, rhIL-3 (20 ng/ml), rhIL-6 (20 ng/ml), rhFlt-3 ligand (100 ng/ml), and rhKL (100 ng/ml) (Stem Cell Technologies). The CD34+ fraction derived from the BM of healthy donors and the PB or BM from CML patients was stained with anti-CD34 FITC or PE, and anti-CD38 PE-Cy7 (BD Biosciences). The Lin− fraction of murine mononuclear cells was stained with anti-Sca-1 PeCy7 (BD Biosciences) and anti-c-kit APC-AlexaFluor750 (eBioscience), The CD34^+/CD38^− or the Lin−/Sca-1+/c-Kit+ (LSK) fractions were sorted by fluorescence-activated cell sorting with a FACS Aria II instrument (BD Biosciences). […]

[4] = test system: UCB CD34^+ cells in NSG mice; settings: mouse, in vivo
Source text: Engraftment of Human Normal and CML Cells in Immnunodeficient NSG Mice and Effect of FTY720 on Leukemic and Normal Hematopoietic Stem/Progenitor Cells. CD34+ cells were isolated from BM of CML patients (n=3) or from umbilical cord blood specimens (UCB; n=3). Note that CML samples were from patients in blastic transformation with ≧75% of Ph+ blasts. Sublethally irradiated (260 rads) 6-8 week-old NOD.Cg-Prkds^scid IL2rg^tm1WjI/SzJ (NSG, Jackson Laboratory) mice were intrafemorally injected with 1-3×10^6 CML or 10^5 UCB CD34^+ cells/mouse. The engraftment was assessed 8 weeks post-transplant by anti-human CD45 (BD Biosciences) and anti-mouse CD45.1 flow staining of intrafemoral BM aspirates and PB from tail vein. Wunderlich et al., Leukemia 24, 1785-1788 (2010). […] Disease evolution and effect of FTY720 on HSC-enriched cell fraction (CD45^+/CD34^+/CD38^−), primitive progenitors (CD45+/CD34+), myeloid (CD45^+/CD34^+/CD33^+), B-cell (CD45^+/CD19^+) and T-cell (CD45^+/CD3^+) compartments were determined before and after 4/8 weeks of FTY720 treatment by FACS-mediated analysis of BM aspirates and/or PB cells. BCR-ABL1 transcript levels were monitored by qRT-PCR-mediated (Ipsogen) analysis of BCR-ABL1/human Abl1 ratios in total RNA samples derived from BM-aspirates of CML-engrafted animals at time of engraftment (time 0) and after 8 weeks of FTY720 treatment. […]

[5] = test system: JAK2; assay: Intracellular flow staining of active JAK2 (pJAK2); format: cell-based, human; settings: CML CFSE^max/CD34^+ cells
Procedure: as §1

[6] = biological target: T1, PP2A (Homo sapiens, UniProt P67775); assay: PP2A phosphatase assay; format: cell-based; settings: CD34+/CD38− CML cells; FTY720 at concentration non-toxic for normal CD34+ progenitors
T1 construct: PP2Ac assays from whole cell lysates; endogenous in cells; host or cells: CD34+/CD38- and CD34+/CD38+ primary CML and normal bone-marrow cells; immunoprecipitated with Millipore PP2Ac antibody
Procedure: PP2A phosphatase assay. PP2Ac assays from whole cell lysates were carried out using the PP2Ac immunoprecipitation phosphatase assay kit (Millipore). Briefly, protein lysates (50 μg) in 100 μl of 20 mM Hepes. pH 7.0, 100 mM NaCl, 5 μg of PP2Ac antibody (Millipore), and 25 μl of Protein A-agarose were added to 400 μl of 50 mM Tris, pH 7.0, 100 mM CaCl2, and IPs were carried out at 4° C. for 2 h. IPs were used in the phosphatase reaction according to the manufacturer's protocol.

T1 sequence (P67775 whole entry): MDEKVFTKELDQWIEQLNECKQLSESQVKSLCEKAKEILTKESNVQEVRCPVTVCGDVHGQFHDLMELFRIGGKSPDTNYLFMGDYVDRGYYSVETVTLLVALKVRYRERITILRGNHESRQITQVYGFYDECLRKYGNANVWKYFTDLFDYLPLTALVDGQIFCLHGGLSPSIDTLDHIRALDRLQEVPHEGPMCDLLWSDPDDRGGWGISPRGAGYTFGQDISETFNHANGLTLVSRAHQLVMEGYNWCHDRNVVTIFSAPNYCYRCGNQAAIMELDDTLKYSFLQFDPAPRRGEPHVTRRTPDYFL

CCCCCCCCc1ccc(CCC(N)(CO)CO)cc1 [FTY720]
decrease in CFSE^max (quiescent) CML HSCs [1]: 60-75% | inhibition of LTC-ICs [2]: 60-70% | inhibition of BCR-ABL1 activity (pABL levels) ([3]; bulk CD34 CML cells): occurred in the bulk | inhibition of BCR-ABL1 activity (pABL levels) ([3]; quiescent fraction (CFSE^max) of CD34 CML cells): not in the quiescent fraction | effect on human BM cell fractions [4]: did not exert noteworthy effects | numbers of circulating B-(CD19^+) and T-(CD3^+) cells [4]: reduced numbers | JAK2 activity (pJAK2) [5]: suppressed | PP2A activity in leukemic HSCs [6]: restored PP2A activity at levels superimposable to those observed in the identical cell fraction from healthy donors
